From patent US20230348495A1, “A COMPOUND HAVING INHIBITORY ACTIVITY AGAINST KRAS G12D MUTATION” (TAIHO PHARMACEUTICAL CO., LTD., priority 2019, published 2023)

Tests used:
KRAS G12D = KRAS G12D (Homo sapiens (Human), UniProt P01116, G12D); experiment: Inhibitory activity on KRAS G12D nucleotide (GDP-GTP) exchange reaction in vitro (SOS1-dependent, BODIPY FL GDP); format: biochemical; conditions: BODIPY FL GDP-bound KRAS G12D, compound 25° C. 1 hour, then SOS1 and GMPPNP 30 minutes
Description: Test Example 1: Evaluation of inhibitory activity of compounds on KRAS G12D nucleotide (GDP-GTP) exchange reaction in vitro
Recombinant KRAS G12D (conjugated N-terminus His6-tag, TEV protease cleavage site and KRAS G12D residues 1-169 (SEQ ID NO: 1), prepared by the method described as below) and cleaved recombinant SOS1 (residues 564-1049(SEQ ID NO: 2), prepared by the method as below) proteins were expressed in E. coli and purified by affinity chromatography.
To prepare the recombinant KRAS G12D, the codon-optimized DNA sequence for the recombinant KRAS G12D (conjugated N-terminus His6-tag, TEV protease cleavage site and KRAS G12D residues 1-169 (SEQ ID NO: 3))was synthesized by GeneArt Technology (Life Technologies, Carlsbad, CA, US). The construct was subcloned into the expression vector pET28a and transformed into Escherichia coli BL21 (DE3) strains (Novagen, Madison, WI, US).
The transformed strain was cultivated in 2 L Luria Broth medium with 25 μg/mL kanamycin at a temperature of 37° C. to a density of 0.6 (OD600), then induced for expression with […] IPTG and further cultivated for 4 h. The cell pellet was resuspended in ice-cold lysis buffer containing 50 mM Tris-HCl (pH 7.5), 200 mM NaCl, and 100 μM TCEP (tris(2-carboxyethyl)phosphine).
After sonication, the disrupted debris was removed by centrifugation. The supernatant was applied on to Ni-NTA affinity gels, and the recombinant human KRAS (G12D) eluted fraction was collected. The buffer of the collected fraction was exchanged to the buffer containing 50 mM Tris-HCl (pH 7.5), 200 mM NaCl, 10% Glycerol, and 5 mM DTT by PD-10 column (GE-Healthcare, Chicago, IL, US).
To prepare the cleaved recombinant SOS1, the codon optimized DNA sequences for the recombinant SOS1 (residues 564-1049 with a conjugated N-terminus His6-tag and TEV protease cleavage site (SEQ ID NO: 4)) was synthesized by GeneArt Technology (Life Technologies). The construct was subcloned into the expression vector pET28a and transformed into Escherichia coli BL21 (DE3) strains (Novagen, Madison, WI, USA).
The transformed strain was cultivated in 2 L Terrific Broth medium with 25 μg/mL kanamycin at a temperature of 37° C. to a density of 0.8 (OD600), then shifted to a temperature of 16° C., induced for expression with […] IPTG, and further cultivated for 16 h. The cell pellet was resuspended in ice-cold lysis buffer containing 50 mM Tris-HCl (pH 7.5), 200 mM NaCl, and 100 μM TCEP.
After sonication, the disrupted debris was removed by centrifugation. The supernatant was applied on to Ni-NTA affinity gels, and the recombinant human SOS1 eluted fraction was collected. Then, His6-tagged TEV protease was added to the collected fraction, dialyzed with the ice-cold lysis buffer for 16 h at a temperature of 4° C., and applied on to Ni-NTA affinity gels. The flow-through fraction containing the tag-cleavaged recombinant human SOS1 was collected. The buffer of the collected fraction was exchanged to the buffer containing 50 mM Tris-HCl (pH 7.5), 200 mM NaCl, 10% Glycerol, and 5 mM DTT by PD-10 column (GE-Healthcare).
To prepare BODIPY FL (fluorescent dye) GDP-bound KRAS G12D protein, 50 μM KRAS G12D protein was incubated with 0.5 mM BODIPY FL GDP in a loading buffer (20 mM Tris-HCl (pH 7.5), 50 mM NaCl, 1 mM DTT and 2.5 mM EDTA) for 1 hour on ice. After the incubation, MgCl2 was added to a final concentration of 10 mM, followed by incubation at room temperature for 30 minutes.
The mixture was allowed to pass through a NAP-5 column to remove free nucleotides and purified BODIPY FL GDP-bound KRAS G12D protein was used for compound evaluation.
For the measurement of the inhibitory activity of compounds on GDP-GTP exchange rate of recombinant KRAS G12D, BODIPY FL GDP-bound KRAS G12D protein was incubated with various concentrations of compound in a reaction buffer (20 mM Tris-HCl (pH 7.5), 100 mM NaCl, 1 mM MgCl2, 2 mM DTT, 0.1% Tween 20) at 25° C. for 1 hour. […]

[1] = test system: KRAS-G12D mutant cell line (A-427); experiment: Growth inhibition activity on KRAS-G12D mutant cell line (A-427), CellTiter-Glo 3D; format: cell-based; conditions: Homo sapiens, 72 h, A-427 cells, 3-day culture with compound, read-out: A427 CTX IC50
Method: Test Example 2: A measurement test of growth inhibition activity on KRAS-G12D mutant cell line (A-427) (in vitro) A-427 cells (ATCC, Cat #: HTB-53), which are a KRAS-G12D mutant human lung cancer cell line, were suspended in a 10% fetal bovine serum-containing E-MEM medium (manufactured by Fujifilm Wako Pure Chemical Corporation). The cell suspension was seeded into each well of a 384-well U bottom microplate and cultured in an incubator containing 5% CO2 gas at 37° C. for 1 day.
The compound of the present invention was dissolved in DMSO, and the test compound was diluted with DMSO to give a concentration 500 times the final concentration. The solution of the test compound in DMSO was diluted with the medium used for suspending cells and added to each well of the cell-culture plate to give a DMSO final concentration of 0.2%, followed by culture in an incubator containing 5% CO2 gas at 37° C. for another 3 days. The cell count after a 3-day culture in the presence of the compound was measured using CellTiter-Glo 3D Reagent (manufactured by Promega Corporation).
All wells were added with CellTiter-Glo 3D Reagent and mixed for 10 minutes. 30 minutes after mixing, luminescence was measured by a plate reader. The growth inhibition rate was calculated from the following equation, and the concentration of the test compound at which 50% inhibition was achieved (IC50 (μM)) was determined.
Growth Inhibition Rate(%)=(C−T)/(C)×100
T: the emission intensity in a well into which a test compound was added.
C: the emission intensity in a well into which a test compound was not added.

Sequence of KRAS G12D (P01116 other isoform, or with tags, fused parts or gaps G12D (already in the parent)): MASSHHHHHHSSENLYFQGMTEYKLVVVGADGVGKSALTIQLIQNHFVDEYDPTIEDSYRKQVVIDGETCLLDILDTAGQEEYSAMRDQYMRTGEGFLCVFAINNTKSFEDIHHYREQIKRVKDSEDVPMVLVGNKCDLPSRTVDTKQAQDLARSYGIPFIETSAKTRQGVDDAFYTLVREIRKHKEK

| Compound | IC50 (KRAS G12D) | IC50 [1] |
| --- | --- | --- |
| CN(C)[C@@H]1CC[C@@H]1COc1nc(N2CC3CCC(C2)N3)c2ccc(-c3cc(O)cc4ccccc34)c(F)c2n1 (relative stereo) [Example 17, 4-(4-(3,8-diazabicyclo[3.2.1]octan-3-yl)-2-((cis-2-(dimethylamino)cyclobutyl)methoxy)-8-fluoroquinazolin-7-yl)naphthalen-2-ol] | 14.6 nM | 1290 nM |
| CN(C)CC1(COc2nc3c(c(N4CC5CCC(C4)N5)n2)CCN(c2cc(O)cc4cccc(Br)c24)C3)CC1 [Example 1, 4-(4-(3,8-diazabicyclo[3.2.1]octan-3-yl)-2-((1-((dimethylamino)methyl)cyclopropyl)methoxy)-5,8-dihydropyrido[3,4-d]pyrimidin-7(6H)-yl)-5-bromonaphthalen-2-ol] | 0.8 nM | 1170 nM |
| Oc1cc(N2CCc3c(nc(OCC4(CN5CC[C@@H](F)C5)CC4)nc3N3CC4CCC(C3)N4)C2)c2c(Br)cccc2c1 [Example 2, 4-(4-(3,8-diazabicyclo[3.2.1]octan-3-yl)-2-((1-(((R)-3-fluoropyrrolidin-1-yl)methyl)cyclopropyl)methoxy)-5,8-dihydropyrido[3,4-d]pyrimidin-7(6H)-yl)-5-bromonaphthalen-2-ol] | 1.5 nM | 540 nM |
| Oc1cc(N2CCc3c(nc(OCC4(CN5CCOCC5)CC4)nc3N3CC4CCC(C3)N4)C2)c2c(Br)cccc2c1 [Example 3, 4-(4-(3,8-diazabicyclo[3.2.1]octan-3-yl)-2-((1-(morpholinomethyl)cyclopropyl)methoxy)-5,8-dihydropyrido[3,4-d]pyrimidin-7 (6H)-yl) -5-bromonaphthalen-2-ol] | – | 590 nM |
| Cc1cccc2cc(O)cc(N3CCc4c(nc(OCC5(CN(C)C)CC5)nc4N4CC5CCC(C4)N5)C3)c12 [Example 4, 4-(4-(3,8-diazabicyclo[3.2.1]octan-3-yl)-2-((1-((dimethylamino)methyl)cyclopropyl)methoxy)-5,8-dihydropyrido[3,4-d]pyrimidin-7(6H)-yl)-5-methylnaphthalen-2-ol] | 1.5 nM | 1170 nM |
| Cc1cccc2cc(O)cc(N3CCc4c(nc(OCC5(CN6CC[C@@H](F)C6)CC5)nc4N4CC5CCC(C4)N5)C3)c12 [Example 5, 4-(4-(3,8-diazabicyclo[3.2.1]octan-3-yl)-2-((1-(((R)-3-fluoropyrrolidin-1-yl)methyl)cyclopropyl)methoxy)-5,8-dihydropyrido[3,4-d]pyrimidin-7(6H)-yl)-5-methylnaphthalen-2-ol] | 6.2 nM | 1170 nM |
| Cc1cccc2cc(O)cc(N3CCc4c(nc(OCC5(CN6CCOCC6)CC5)nc4N4CC5CCC(C4)N5)C3)c12 [Example 6, 4-(4-(3,8-diazabicyclo[3.2.1]octan-3-yl)-2-((1-(morpholinomethyl)cyclopropyl)methoxy)-5,8-dihydropyrido[3,4-d]pyrimidin-7(6H)-yl)-5-methylnaphthalen-2-ol] | 3.2 nM | 550 nM |
| CN(C)CC1(COc2nc3c(c(N4CC5CCC(C4)N5)n2)CCN(c2cc(O)cc4cccc(I)c24)C3)CC1 [Example 7, 4-(4-(3,8-diazabicyclo[3.2.1]octan-3-yl)-2-((1-((dimethylamino)methyl)cyclopropyl)methoxy)-5,8-dihydropyrido[3,4-d]pyrimidin-7(6H)-yl)-5-iodonaphthalen-2-ol] | 0.7 nM | 580 nM |
| Oc1cc(N2CCc3c(nc(OCC4(CN5CC[C@@H](F)C5)CC4)nc3N3CC4CCC(C3)N4)C2)c2c(I)cccc2c1 [Example 8, 4-(4-(3,8-diazabicyclo[3.2.1]octan-3-yl)-2-((1-(((R)-3-fluoropyrrolidin-1-yl)methyl)cyclopropyl)methoxy)-5,8-dihydropyrido[3,4-d]pyrimidin-7(6H)-yl)-5-iodonaphthalen-2-ol] | 0.9 nM | 470 nM |
| Oc1cc(N2CCc3c(nc(OCC4(CN5CCOCC5)CC4)nc3N3CC4CCC(C3)N4)C2)c2c(I)cccc2c1 [Example 9, 4-(4-(3,8-diazabicyclo[3.2.1]octan-3-yl)-2-((1-(morpholinomethyl)cyclopropyl)methoxy)-5,8-dihydropyrido[3,4-d]pyrimidin-7(6H)-yl)-5-iodonaphthalen-2-ol] | 0.7 nM | 350 nM |
| C#Cc1cccc2cc(O)cc(C(=O)N3Cc4nc(OCC5(CN6CCOCC6)CC5)nc(N5CC6CCC(C5)N6)c4C3)c12 [Example 10, (4-(3,8-diazabicyclo[3.2.1]octan-3-yl)-2-((1-(morpholinomethyl)cyclopropyl)methoxy)-5,7-dihydro-6H-pyrrolo[3,4-d]pyrimidin-6-yl) (8-ethynyl-3-hydroxynaphthalen-1-yl)methanone] | 1.5 nM | 6620 nM |
| C#Cc1cccc2cc(O)cc(C(=O)N3Cc4nc(OCC5(CN6CC[C@@H](F)C6)CC5)nc(N5CC6CCC(C5)N6)c4C3)c12 [Example 11, (4-(3,8-diazabicyclo[3.2.1]octan-3-yl)-2-((1-(((R)-3-fluoropyrrolidin-1-yl)methyl)cyclopropyl)methoxy)-5,7-dihydro-6H-pyrrolo[3,4-d]pyrimidin-6-yl) (8-ethynyl-3-hydroxynaphthalen-1-yl)methanone] | 1.4 nM | 7850 nM |
| Ic1cccc2cccc(N3CCc4c(nc(OCC5(CN6CCOCC6)CC5)nc4N4CC5CCC(C4)N5)C3)c12 [Example 25, 4-((1-(((4-(3,8-diazabicyclo[3.2.1]octan-3-yl)-7-(8-iodonaphthalen-1-yl)-5,6,7,8-tetrahydropyrido[3,4-d]pyrimidin-2-yl)oxy)methyl)cyclopropyl)methyl)morpholine] | 39.8 nM | – |
| CN1CCC[C@@H]1COc1nc2c(c(N3CC4CCC(C3)N4)n1)CCN(c1cc(O)cc3cccc(Br)c13)C2 [Example 26, 4-(4-(3,8-diazabicyclo[3.2.1]octan-3-yl)-2-(((R)-1-methylpyrrolidin-2-yl)methoxy)-5,8-dihydropyrido[3,4-d]pyrimidin-7(6H)-yl)-5-bromonaphthalen-2-ol] | 19.9 nM | – |
